According to patent US7842671B1, “Peptidomimetic inhibitors of STAT activity and uses thereof” (University of South Florida, priority 2003, dated 2010):
Square brackets hold non-standard residues; d marks the D form. Ends that are not written are not given here. pY = N[C@@H](Cc1ccc(OP(=O)(O)O)cc1)C(=O)O

Key:
NIH3T3/v-Src [1] = assay: Apo-BrdU labeling and flow cytometry for apoptotic cells; assay type: cell-based, mouse; settings: 48 h
Experimental: (§1) Cell proliferation, soft-agar growth and Apo-BrdU labeling studies. Proliferating fibroblasts and human tumor cells were counted by phase-contrast microscopy for viable cells (using tyrpan blue exclusion). Colony formation assays in six-well dishes and quantification of colonies by iodonitrotetrazolium violet have been previously described (Turkson, J. et al. (1999)). Treatment of cells with inhibitors was initiated 1 day after seeding cells by adding 75 μl of medium with or without inhibitor, and repeated every two to three days. Apoptosis was measured by Apo-BrdU labeling and following the supplier's (PharMingen; San Diego, Calif.) instructions.
(§2) Because one of the functions of Stat3 is to protect transformed or tumor cells from apoptosis (Catlett-Falcone, R. et al. (1999b); Epling-Burnette, P. K. et al. (2001); Grandis, J. R. et al. (2000); Bowman, T. et al. (2000b); Bromberg, J. F. et al. (1999)), the ability of peptidomimetics of the invention (and PY*LKTK-MTS for comparison) (SEQ ID NO. 1) to induce apoptosis in Stat3-dependent transformed fibroblasts was evaluated. Viral Src-transformed NIH3T3/v-Src fibroblasts were treated with or without compounds for 48 h. Treated cells were then labeled with Apo-BrdU (PharMingen; San Diego, Calif.) for detection of DNA breaks.

NIH3T3 = assay: as above; assay type: cell-based, mouse; settings: NIH3T3, 1 mM, 48 h, flow cytometry
Experimental: as §1, §2

Stat3 = Stat3 (Mus musculus, UniProt P42227); set-up: nuclear extracts prepared from v-Src-transformed NIH3T3/v-Src; endogenous in cells; host or cells: NIH3T3/v-Src; settings: Turkson J. et al. (2001); cited from earlier work
NIH3T3/v-Src [2] = assay type: cell-based, mouse; settings: 1 mM, four days
Experimental: as §1
(§3) Stat3 has an essential role in cell proliferation, and constitutively-active Stat3 is required for growth of transformed and tumor cells that harbor aberrant Stat3 signaling. Studies were performed to determine the effects of the peptidomimetic-mediated inhibition of Stat3 on cell proliferation using trypan blue exclusion for viable cell counts.

MDA-MB-435 = assay type: cell-based, human; settings: 1 mM, MDA-MB-435, four days
Experimental: as §1, §3

MDA-MB-231 = assay type: cell-based, human; settings: 1 mM, MDA-MB-231, four days
Experimental: as §1, §3

Sequence of Stat3 (P42227 whole entry): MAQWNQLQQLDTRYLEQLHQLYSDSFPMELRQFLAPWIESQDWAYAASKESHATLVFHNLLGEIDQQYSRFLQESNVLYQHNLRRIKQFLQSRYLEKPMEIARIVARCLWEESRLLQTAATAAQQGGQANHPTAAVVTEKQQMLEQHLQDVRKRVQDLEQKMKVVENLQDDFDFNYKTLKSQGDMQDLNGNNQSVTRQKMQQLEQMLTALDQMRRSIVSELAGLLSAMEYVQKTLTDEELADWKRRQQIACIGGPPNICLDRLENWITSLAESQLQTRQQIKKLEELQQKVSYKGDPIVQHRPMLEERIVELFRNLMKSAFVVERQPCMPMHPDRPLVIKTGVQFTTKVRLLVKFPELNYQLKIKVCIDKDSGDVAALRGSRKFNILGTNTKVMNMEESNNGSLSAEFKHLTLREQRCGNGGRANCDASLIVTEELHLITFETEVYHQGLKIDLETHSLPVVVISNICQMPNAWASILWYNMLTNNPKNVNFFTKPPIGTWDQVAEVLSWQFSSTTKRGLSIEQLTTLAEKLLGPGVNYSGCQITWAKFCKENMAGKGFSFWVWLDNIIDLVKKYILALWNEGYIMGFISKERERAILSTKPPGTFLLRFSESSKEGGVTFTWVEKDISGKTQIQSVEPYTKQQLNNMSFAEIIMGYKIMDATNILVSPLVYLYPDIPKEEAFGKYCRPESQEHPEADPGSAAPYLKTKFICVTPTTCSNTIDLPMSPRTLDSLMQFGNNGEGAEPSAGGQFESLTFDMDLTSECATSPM

Substance: PY*LKTK-AAVLLPVLLAAP (P[pY]LKTKAAVLLPVLLAAP) [PY*LKTK-MTS]
- percent of apoptotic cells (NIH3T3/v-Src [1]; NIH3T3/v-Src, 1 mM, Apo-BrdU, flow cytometry): 27.6%
- incorporated BrdUTP compared to controls (in words) (NIH3T3/v-Src [1]; Src-transformed fibroblasts): dramatic increases in incorporated BrdUTP
- percent of apoptotic cells (NIH3T3): 3.7%
- constitutive Stat3 activation in Src-transformed fibroblasts (Stat3): inhibits constitutive Stat3 activation
- cell proliferation (NIH3T3/v-Src [2]): significantly suppresses proliferation
- cell proliferation (MDA-MB-435): significantly suppresses proliferation
- cell proliferation (MDA-MB-231): significantly suppresses proliferation
